Measured values: patent US12421237B2, “Pesticidally active heterocyclic derivatives with sulfur containing substituents” (SYNGENTA PARTICIPATIONS AG, priority 2016, dated 2025)

How the values were obtained:
Format in all cases: in vivo
[1] = tested on: Myzus persicae (Green Peach Aphid); assay: Myzus persicae (Green Peach Aphid): Feeding/Contact Activity; settings: foliar, 144 h, application rate of 200 ppm, sunflower leaf discs sprayed, aphid population of mixed ages, 6 days after infestation
Method: Sunflower leaf discs were placed onto agar in a 24-well microtiter plate and sprayed with aqueous test solutions prepared from 10,000 ppm DMSO stock solutions. After drying, the leaf discs were infested with an aphid population of mixed ages. The samples were assessed for mortality 6 days after infestation.

[2] = tested on: Frankliniella occidentalis (Western Flower Thrips); assay: Frankliniella occidentalis (Western Flower Thrips): Feeding/Contact Activity; settings: foliar, 168 h, application rate of 200 ppm, sunflower leaf discs sprayed, population of mixed ages, 7 days after infestation
Method: Sunflower leaf discs were placed on agar in 24-well microtiter plates and sprayed with aqueous test solutions prepared from 10,000 DMSO stock solutions. After drying the leaf discs were infested with a Frankliniella population of mixed ages. The samples were assessed for mortality 7 days after infestation.

[3] = tested on: Diabrotica Balteata (Corn Root Worm); assay: Diabrotica balteata (Corn Root Worm) maize sprout spray test; settings: 96 h, application rate of 200 ppm, maize sprouts sprayed, L2 larvae, 4 days after infestation, read-out: effect in at least one of the two categories (mortality or growth inhibition)
Method: Maize sprouts placed onto an agar layer in 24-well microtiter plates were treated with aqueous test solutions prepared from 10,000 ppm DMSO stock solutions by spraying. After drying, the plates were infested with L2 larvae (6 to 10 per well). The samples were assessed for mortality and growth inhibition in comparison to untreated samples 4 days after infestation.

[4] = tested on: Plutella xylostella (Diamond Back Moth); assay: Plutella xylostella (Diamond Back Moth) artificial diet test; settings: 120 h, application rate of 200 ppm, L2 larvae, 5 days after infestation, read-out: effect in at least one of the two categories (mortality or growth inhibition)
Method: 24-well microtiter plates with artificial diet were treated with aqueous test solutions prepared from 10,000 ppm DMSO stock solutions by pipetting. After drying, the plates were infested with L2 larvae (10 to 15 per well). The samples were assessed for mortality and growth inhibition in comparison to untreated samples 5 days after infestation.

[5] = tested on: Bemisia tabaci (Cotton White Fly); assay: Bemisia tabaci (Cotton White Fly): Feeding/Contact Activity; settings: foliar, 144 h, application rate of 200 ppm, cotton leaf discs sprayed, adult white flies, 6 days after incubation
Method: Cotton leaf discs were placed on agar in 24-well microtiter plates and sprayed with aqueous test solutions prepared from 10,000 ppm DMSO stock solutions. After drying the leaf discs were infested with adult white flies. The samples were checked for mortality 6 days after incubation.

[6] = tested on: Spodoptera littoralis (Egyptian Cotton Leaf Worm); assay: Spodoptera littoralis (Egyptian Cotton Leaf Worm) systemic lettuce test; settings: 144 h, test rate of 12.5 ppm, compound in agar taken up by lettuce roots, eggs, 6 days after infestation, read-out: effect in at least one of the three categories (mortality, anti-feeding, or growth inhibition)
From the text: Test compounds were applied by pipette from 10,000 ppm DMSO stock solutions into 24-well plates and mixed with agar. Lettuce seeds were placed onto the agar and the multi well plate was closed by another plate which contained also agar. After 7 days the compound was absorbed by the roots and the lettuce grew into the lid plate. The lettuce leaves were then cut off into the lid plate. Spodoptera eggs were pipetted through a plastic stencil onto a humid gel blotting paper and the lid plate was closed with it. The samples were assessed for mortality, anti-feedant effect and growth inhibition in comparison to untreated samples 6 days after infestation.

[7] = tested on: Myzus persicae (Green Peach Aphid); assay: Myzus persicae (Green Peach Aphid). Systemic Activity; settings: 144 h, test rate of 24 ppm, roots of infested pea seedlings in test solution, 6 days
Method: Roots of pea seedlings infested with an aphid population of mixed ages were placed directly into aqueous test solutions prepared from 10,000 DMSO stock solutions. The samples were assessed for mortality 6 days after placing seedlings into test solutions.

[8] = tested on: Euschistus heros (Neotropical Brown Stink Bug); assay: Euschistus heros (Neotropical Brown Stink Bug) soybean leaf spray test; settings: 120 h, application rate of 200 ppm, soybean leaves sprayed, N2 nymphs, 5 days after infestation, read-out: effect in at least one of the two categories (mortality or growth inhibition)
Method: Soybean leaves on agar in 24-well microtiter plates were sprayed with aqueous test solutions prepared from 10,000 ppm DMSO stock solutions. After drying the leaves were infested with N2 nymphs. The samples were assessed for mortality and growth inhibition in comparison to untreated samples 5 days after infestation.

CCS(=O)(=O)c1cc(C2(C#N)CC2)cnc1-c1nc2cc(C(F)(F)F)nnc2n1C [Example H-1, 1-[5-Ethylsulfonyl-6-[7-methyl-3-(trifluoromethyl)imidazo[4,5-c]pyridazin-6-yl]-3-pyridyl]cyclopropanecarbonitrile]
≥ 80%: mortality at 200 ppm [1] | mortality at 200 ppm [2] | percent effect (mortality or growth inhibition) at 200 ppm [3] | percent effect (mortality or growth inhibition) at 200 ppm [4] | mortality at 200 ppm [5] | percent effect (mortality, anti-feeding or growth inhibition) at 12.5 ppm [6] | mortality at 24 ppm [7] | percent effect (mortality or growth inhibition) at 200 ppm [8]

CCSc1cc(C2(C#N)CC2)cnc1-c1nc2cc(C(F)(F)F)nnc2n1C [Example H-2, 1-[5-ethylsulfanyl-6-[7-methyl-3-(trifluoromethyl)imidazo[4,5-c]pyridazin-6-yl]-3-pyridyl]cyclopropanecarbonitrile]
≥ 80%: mortality at 200 ppm [2] | percent effect (mortality or growth inhibition) at 200 ppm [3] | percent effect (mortality or growth inhibition) at 200 ppm [4] | percent effect (mortality or growth inhibition) at 200 ppm [8]
